In publication PMC6905855, “Agonist-specific voltage-dependent gating of lysosomal two-pore Na^+ channels” (eLife, 2019):
Where “and” joins values, the source holds several entries; their conditions need not be identical. Equal entries are not always repeated.

Legend:
hTPC2 = target: T1, hTPC2 (Homo sapiens, UniProt Q8NHX9); assay: Whole-endolysosome recordings of ITPC2; assay type: biochemical; details: for inactivation of ITPC2, I500ms / I10ms: @-120mV; for time course of LyNa-VA1.2-induced ITPC2: EL
T1 construct: expressed in transfected cells; host or cells: Cos1 and HEK293
T1 sequence (Q8NHX9 whole entry): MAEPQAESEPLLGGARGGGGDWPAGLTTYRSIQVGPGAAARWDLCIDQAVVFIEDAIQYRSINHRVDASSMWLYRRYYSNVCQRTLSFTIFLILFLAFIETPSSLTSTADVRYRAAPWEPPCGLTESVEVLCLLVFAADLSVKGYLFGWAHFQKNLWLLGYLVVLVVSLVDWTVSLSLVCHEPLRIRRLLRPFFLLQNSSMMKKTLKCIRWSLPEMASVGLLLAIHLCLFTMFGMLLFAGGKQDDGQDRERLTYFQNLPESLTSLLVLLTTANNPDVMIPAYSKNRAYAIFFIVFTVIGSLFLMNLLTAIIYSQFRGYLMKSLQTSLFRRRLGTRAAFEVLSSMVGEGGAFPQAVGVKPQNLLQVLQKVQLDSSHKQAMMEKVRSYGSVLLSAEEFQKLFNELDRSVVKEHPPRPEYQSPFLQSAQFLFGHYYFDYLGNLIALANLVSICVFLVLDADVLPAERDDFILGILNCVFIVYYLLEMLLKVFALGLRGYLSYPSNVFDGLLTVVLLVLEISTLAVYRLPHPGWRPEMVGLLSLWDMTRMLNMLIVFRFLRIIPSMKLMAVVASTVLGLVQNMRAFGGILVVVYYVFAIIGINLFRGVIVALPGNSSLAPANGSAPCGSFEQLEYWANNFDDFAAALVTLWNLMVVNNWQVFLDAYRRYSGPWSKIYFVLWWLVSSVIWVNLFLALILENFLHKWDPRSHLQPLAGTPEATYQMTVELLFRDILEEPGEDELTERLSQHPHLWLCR

[1] = target: T2, surface-expressing mutant TPC2 channel (TPC2^LL/AA) in HEK293 cells (Homo sapiens, UniProt Q8NHX9, L11A/L12A); assay: Whole-cell recordings of ITPC2-LL/AA; assay type: cell-based; details: for voltage-dependent inactivation of ITPC2, I1s / 0s: @-140mV; for time course of LyNa-VA1.2-induced ITPC2: wc; for current density: whole cell recordings
T2 construct: expressed in transfected cells; host or cells: HEK293
T2 sequence (Q8NHX9 whole entry L11A/L12A): as the sequence (Q8NHX9 whole entry) above, with L11A, L12A counted along it
How it was run: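 HEK293 cells transiently expressing EGFP-tagged human TPC2 L11A/L12A, a plasma-membrane-targeted mutant, recorded 24–36 h post-transfection. Whole-cell patch clamp with fast perfusion of bath solutions; currents digitized at 10 kHz and filtered at 2 kHz.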

hTPC1 = target: T3, hTPC1 (Homo sapiens, UniProt Q9ULQ1); assay: Whole-endolysosome recordings of ITPC1; assay type: biochemical
T3 construct: expressed in transfected cells; host or cells: Cos1

[2] = lysosome, 200 µM, individual recordings
[3] = whole-endolysosome, 200 µM, mean ± S.E.M
[4] = whole cell, 200 µM, individual recordings
[5] = whole-cell, 200 µM, mean ± S.E.M

CNCCCN1c2ccccc2CCc2ccccc21 [LyNa-VA1.2, Desipramine]
inactivation of ITPC2, I500ms / I10ms (hTPC2; PI(3,5)P2 0.3 µM, LyNa-VA1.2 100 µM, LyNA1 300 µM, individual tests): 0.6243 and 0.7434 and 0.4902 and 0.5999 and 0.6758 | inactivation of ITPC2, I500ms / I10ms (hTPC2; mean): 0.6267 | time course of LyNa-VA1.2-induced ITPC2 (hTPC2; time 0 s): -0.016 | time course of LyNa-VA1.2-induced ITPC2 (hTPC2; time 2 s): -0.01474 | time course of LyNa-VA1.2-induced ITPC2 (hTPC2; time 4 s): -0.01598 | time course of LyNa-VA1.2-induced ITPC2 (hTPC2; time 6 s): -0.00988 | time course of LyNa-VA1.2-induced ITPC2 (hTPC2; time 8 s): -0.00688 | time course of LyNa-VA1.2-induced ITPC2 (hTPC2; time 10 s): -0.02054 | time course of LyNa-VA1.2-induced ITPC2 (hTPC2; time 12 s): -0.02108 | time course of LyNa-VA1.2-induced ITPC2 (hTPC2; time 14 s): -0.1089 | time course of LyNa-VA1.2-induced ITPC2 (hTPC2; time 16 s): -0.1984 | time course of LyNa-VA1.2-induced ITPC2 (hTPC2; time 18 s): -0.2507 | time course of LyNa-VA1.2-induced ITPC2 (hTPC2; time 20 s): -0.3079 | time course of LyNa-VA1.2-induced ITPC2 (hTPC2; time 22 s): -0.5611 | time course of LyNa-VA1.2-induced ITPC2 (hTPC2; time 24 s): -0.7092 | time course of LyNa-VA1.2-induced ITPC2 (hTPC2; time 26 s): -0.8241 | time course of LyNa-VA1.2-induced ITPC2 (hTPC2; time 28 s): -0.8579 | time course of LyNa-VA1.2-induced ITPC2 (hTPC2; time 30 s): -0.8577 | time course of LyNa-VA1.2-induced ITPC2 (hTPC2; time 32 s): -0.9123 | time course of LyNa-VA1.2-induced ITPC2 (hTPC2; time 34 s): -1 | time course of LyNa-VA1.2-induced ITPC2 (hTPC2; time 36 s): -0.9719 | time course of LyNa-VA1.2-induced ITPC2 (hTPC2; time 38 s): -0.9923 | time course of LyNa-VA1.2-induced ITPC2 (hTPC2; time 40 s): -0.9868 | time course of LyNa-VA1.2-induced ITPC2 (hTPC2; time 42 s): -0.989 | Latency of induced ITPC2 (hTPC2; [2]): 6 s and 8 s and 10 s | Time constant (τ) of induced ITPC2 (hTPC2; [2]): 6.38 s and 6 s and 5.4 s | ITPC2 (hTPC2; whole endolysosome recordings with 100 µM of LyNa-VAs at −120 mV): 1120 ± 94 pA | latency of TPC2 activation (hTPC2; [3]): 7 ± 1 s | time constant (τ) of TPC2 activation (hTPC2; [3]): 8 ± 2 s | voltage-dependent inactivation of ITPC2, I1s / 0s ([1]; whole-cell, individual recordings): 0.09192 and 0.1098 and 0.1458 | voltage-dependent inactivation of ITPC2, I1s / 0s ([1]; whole-cell, mean): 0.1158 | activation of whole-cell ITPC2-LL/AA (in words) ([1]; bath application, symmetric Na^+, 100 µM where stated): ITPC2 was evoked | time course of LyNa-VA1.2-induced ITPC2 ([1]; time 0 s): -0.02373 | time course of LyNa-VA1.2-induced ITPC2 ([1]; time 2 s): -0.02853 | time course of LyNa-VA1.2-induced ITPC2 ([1]; time 4 s): -0.024 | time course of LyNa-VA1.2-induced ITPC2 ([1]; time 6 s): -0.02111 | time course of LyNa-VA1.2-induced ITPC2 ([1]; time 8 s): -0.02193 | time course of LyNa-VA1.2-induced ITPC2 ([1]; time 10 s): -0.01987 | time course of LyNa-VA1.2-induced ITPC2 ([1]; time 12 s): -0.0181 | time course of LyNa-VA1.2-induced ITPC2 ([1]; time 14 s): -0.01154 | time course of LyNa-VA1.2-induced ITPC2 ([1]; time 16 s): -7.79E-04 | time course of LyNa-VA1.2-induced ITPC2 ([1]; time 18 s): -0.01449 | time course of LyNa-VA1.2-induced ITPC2 ([1]; time 20 s): -0.01685 | time course of LyNa-VA1.2-induced ITPC2 ([1]; time 22 s): -0.0503 | time course of LyNa-VA1.2-induced ITPC2 ([1]; time 24 s): -0.06829 | time course of LyNa-VA1.2-induced ITPC2 ([1]; time 26 s): -0.1356 | time course of LyNa-VA1.2-induced ITPC2 ([1]; time 28 s): -0.1797 | time course of LyNa-VA1.2-induced ITPC2 ([1]; time 30 s): -0.2005 | time course of LyNa-VA1.2-induced ITPC2 ([1]; time 32 s): -0.2805 | time course of LyNa-VA1.2-induced ITPC2 ([1]; time 34 s): -0.3854 | time course of LyNa-VA1.2-induced ITPC2 ([1]; time 36 s): -0.4381 | time course of LyNa-VA1.2-induced ITPC2 ([1]; time 38 s): -0.4224 | time course of LyNa-VA1.2-induced ITPC2 ([1]; time 40 s): -0.5193 | time course of LyNa-VA1.2-induced ITPC2 ([1]; time 42 s): -0.5569 | time course of LyNa-VA1.2-induced ITPC2 ([1]; time 44 s): -0.6324 | time course of LyNa-VA1.2-induced ITPC2 ([1]; time 46 s): -0.7257 | time course of LyNa-VA1.2-induced ITPC2 ([1]; time 48 s): -0.7464 | time course of LyNa-VA1.2-induced ITPC2 ([1]; time 50 s): -0.8325 | time course of LyNa-VA1.2-induced ITPC2 ([1]; time 52 s): -0.8418 | time course of LyNa-VA1.2-induced ITPC2 ([1]; time 54 s): -0.8932 | time course of LyNa-VA1.2-induced ITPC2 ([1]; time 56 s): -0.9277 | time course of LyNa-VA1.2-induced ITPC2 ([1]; time 58 s): -0.9561 | time course of LyNa-VA1.2-induced ITPC2 ([1]; time 60 s): -0.9666 | time course of LyNa-VA1.2-induced ITPC2 ([1]; time 62 s): -0.9966 | time course of LyNa-VA1.2-induced ITPC2 ([1]; time 64 s): -0.9748 | time course of LyNa-VA1.2-induced ITPC2 ([1]; time 66 s): -1.0004 | current density ([1]; 5 µM, individual recordings): 10.3471 pA/pF and 4.752 pA/pF and 3.368 pA/pF and 5.887 pA/pF | current density ([1]; 10 µM, individual recordings): 14.5785 pA/pF and 6.451 pA/pF and 2.849 pA/pF and 8.548 pA/pF | current density ([1]; 20 µM, individual recordings): 24.0331 pA/pF and 8.699 pA/pF and 7.085 pA/pF and 17.3826 pA/pF | current density ([1]; 50 µM, individual recordings): 89.8595 pA/pF and 25.0088 pA/pF and 25.4245 pA/pF and 76.3478 pA/pF | current density ([1]; 100 µM, individual recordings): 240.859 pA/pF and 94.6372 pA/pF and 96.3302 pA/pF and 256.8 pA/pF | current density ([1]; 200 µM, individual recordings): 297.455 pA/pF and 239.381 pA/pF and 181.434 pA/pF and 429.652 pA/pF | current density ([1]; 400 µM, individual recordings): 245.487 pA/pF and 193.066 pA/pF and 464.052 pA/pF | Latency of induced ITPC2 [1, 4]: 14 s and 12 s and 20 s | Time constant (τ) of induced ITPC2 [1, 4]: 55 s and 48 s and 30.1 s and 39.1 s | EC50 ([1]; whole-cell recordings at −140 mV, TPC2^LL/AA-transfected HEK293 cells, read-out: EC50): 87 ± 8 µM | latency of TPC2 activation [1, 5]: 15 ± 2 s | time constant (τ) of TPC2 activation [1, 5]: 43 ± 5 s | Dose-dependent activation of TPC1 (normalized ITPC1) (hTPC1; 3 µM, individual patches): 0.01236 and 0.1007 and 0.1129 | Dose-dependent activation of TPC1 (normalized ITPC1) (hTPC1; 3 µM, mean): 0.07532 | Dose-dependent activation of TPC1 (normalized ITPC1) (hTPC1; 10 µM, individual patches): 0.3905 and 0.6013 and 0.2982 | Dose-dependent activation of TPC1 (normalized ITPC1) (hTPC1; 10 µM, mean): 0.43 | Dose-dependent activation of TPC1 (normalized ITPC1) (hTPC1; 30 µM, individual patches): 0.9756 and 1 and 0.7567 | Dose-dependent activation of TPC1 (normalized ITPC1) (hTPC1; 30 µM, mean): 0.9108 | Dose-dependent activation of TPC1 (normalized ITPC1) (hTPC1; 100 µM, individual patches): 1 (2×) and 0.518 | Dose-dependent activation of TPC1 (normalized ITPC1) (hTPC1; 100 µM, mean): 0.8393 | Dose-dependent activation of TPC1 (normalized ITPC1) (hTPC1; 300 µM, individual patches): 0.9299 and 0.7273 | Dose-dependent activation of TPC1 (normalized ITPC1) (hTPC1; 300 µM, mean): 0.8286 | EC50 (hTPC1; whole-endolysosome, n = 3 patches, read-out: EC50, activation of TPC1): 10 ± 1 µM
